Assays:
Type in all cases: in vivo
[1] = test system: normal mice; experiment: Lowering plasma glucose level, intraperitoneal injection, normal mice; settings: normal mice, one hour after administration
Procedure: (§1) Normal and streptozotocin (STZ)-induced diabetic mice were administered with borapetoside A (5.0 mg/kg), borapetoside C (5.0 mg/kg), glibenclamide (5.0 mg/kg), metformin (500.0 mg/kg), or a vehicle control via intraperitoneal injection. STZ-induced diabetic mice are a well-known mouse model of type I diabetes (insulin dependent). See, e.g., Liu I M, et al., Neuroscience Letters 2001; 307: 81-84. Glibenclamide and metformin serve as two positive controls in this study.
(§2) The plasma glucose levels of the treated mice were determined before and one hour after administration. The activity of lowering plasma glucose levels (AL) is calculated following the formula: […]
(§3) Borapetoside C was administered to normal mice at 0.1, 1.0, 3.0, and 5.0 mg/kg and to STZ-diabetic mice at 0.1, 1.0, 3.0, and 5.0 mg/kg. The plasma glucose levels of the treated mice were examined before and after treatment.

[2] = test system: STZ-induced diabetic mice; experiment: Lowering plasma glucose level, intraperitoneal injection, STZ-induced diabetic mice (type I diabetes model); settings: one hour after administration
Procedure: as §1, §2, §3

[3] = test system: DIO-induced diabetic mice; experiment: Lowering plasma glucose level, intraperitoneal injection, diet-induced obesity diabetic mice (type II diabetes model); settings: one hour after administration
Procedure: Normal and diet-induced obesity diabetic mice (“DIO-induced diabetic mice) were administered with borapetoside A (5.0 mg/kg), borapetoside C (5.0 mg/kg), glibenclamide (5.0 mg/kg), metformin (500.0 mg/kg), or a vehicle control via intraperitoneal injection. DIO-induced diabetic mice are a well-known mouse model of type II diabetes (non-insulin dependent). See Liu et al., J Mol. Endocrinol. 2008.
The plasma glucose levels of the treated mice were determined before and one hour after administration. The activities of these compounds for lowering plasma glucose levels were calculated as described above.
Borapetoside C was administered to DIO-induced diabetic mice at 0.1, 1.0, 3.0, and 5.0 mg/kg and the plasma glucose levels were examined before and after administration. The basal plasma glucose concentration in diet-induced diabetic mice (untreated) was 174.6±7.7 mg/dL. One hour after treatment, the plasma glucose levels in mice treated with vehicle control, 0.1 mg/kg borapetoside C, 1.0 mg/kg borapetoside C, 3.0 mg/kg borapetoside C, and 5.0 mg/kg borapetoside C were 172.5±10.9 mg/dL, 170.5±6.8 mg/dL, 127.9±6.0 mg/dL, 121.3±4.3 mg/dL and 119.9±4.6 mg/dL, respectively.

[4] = test system: normal mice; experiment: Plasma insulin levels before and after treatment (Insulin ELISA), normal mice; settings: 5.0 mg/kg i.p.; for Plasma insulin, Pre-treatment: before treatment; for Plasma insulin, post-treatment: one hour after treatment
Procedure: (§4) Normal mice, STZ-induced diabetic mice, and diet-induced diabetic mice were administered with a vehicle control, borapetoside A (5.0 mg/kg), borapetoside C (at various doses), glibenclamide (5.0 mg/kg) or metformin (500 mg/kg) by intraperitoneal injection. These mice were examined for their blood insulin levels before and one hour after treatment, using the Insulin(Rat) ELISA kit obtained from Penisula Lab. Inc., San Carlos, Calif., USA.

[5] = test system: STZ-diabetic mice (IDDM); experiment: Plasma insulin levels before and after treatment (Insulin ELISA), STZ-diabetic mice; settings: for Plasma insulin, Pre-treatment: before treatment; for Plasma insulin, post-treatment: one hour after treatment
Procedure: as §4

[6] = test system: Diet-induced diabetic (NIDDM) mice; experiment: Plasma insulin levels before and after treatment (Insulin ELISA), diet-induced diabetic mice; settings: 5.0 mg/kg i.p.; for Plasma insulin, Pre-treatment: before treatment; for Plasma insulin, post-treatment: one hour after treatment
Procedure: as §4

[7] = test system: normal mice; experiment: Lowering plasma glucose levels via oral administration, normal mice; settings: oral 10.0 mg/kg, sixty minutes after treatment, mean ± SEM, six animals
Procedure: (§5) Normal, STZ-induced diabetic mice, and diet-induced diabetic mice were administered orally with 10.0 mg/kg borapetoside C, glibenclamide or metformin as a positive control, and a vehicle control. The plasma glucose levels of the treated mice were determined before and sixty minutes after treatment and the results thus obtained were shown in Table 3 below.

[8] = test system: Diet-induced diabetic mice (NIDDM); experiment: Lowering plasma glucose levels via oral administration, diet-induced diabetic mice; settings: oral 10.0 mg/kg, sixty minutes after treatment, mean ± SEM, six animals
Procedure: as §5

[9] = test system: Normal ICR mice; experiment: Intraperitoneal glucose tolerance test (IPGTT), normal ICR mice; settings: borapetoside C 5.0 mg/kg
Procedure: (§6) Normal ICR mice and DIO-induced diabetic mice, treated with borapetoside C (5.0 mg/kg), a vehicle control, or glibenclamide (positive control), were subjected to an intraperitoneal glucose tolerance test (IPGTT) as described in Lamont et al., Diabetes 2008; 57: 190-198. More specifically, glucose (2.0 mg/g body weight) was administered via IP injection to normal and DIO mice and blood samples were drawn from the treated mice before and 30, 60, 120, and 150 min after glucose administration for examination of glucose levels.
In normal mice treated with borapetoside C, the vehicle control, and glibenclamide, the basal plasma glucose concentrations were 106.8±4.7 mg/dL, 114.7±4.6 mg/dL, and 104.9±3.1 mg/dL, respectively. Thirty minutes after intraperitoneal glucose injection, the plasma glucose concentration was elevated to 346.2±14.7 mg/dL in vehicle-treated mice, to 292.9±10.9 mg/dL in borapetoside C-treated mice, or to 273.4±13.6 mg/dL in glibenclamide-treated mice.

[10] = test system: DIO-induced diabetic mice; experiment: Intraperitoneal glucose tolerance test (IPGTT), DIO-induced diabetic mice; settings: diet-induced diabetic mice, borapetoside C 5.0 mg/kg
Procedure: as §6
In diet-induced diabetic mice treated with borapetoside C, the vehicle control, and glibenclamide, the basal plasma glucose concentrations were 181.6±12.3 mg/dL, 183.1±2.9 mg/dL, and 185.3±7.7 mg/dL, respectively. Thirty minutes after intraperitoneal glucose injection, the plasma glucose concentration was elevated to 405.6±8.9 mg/dL in vehicle-treated mice, to 343.5±11.2 mg/dL in borapetoside C-treated mice, or to 339.1±15.4 mg/dL in glibenclamide-treated mice.

[11] = test system: STZ-diabetic mice (IDDM); experiment: Lowering plasma glucose levels via oral administration, STZ-diabetic mice; settings: oral 500.0 mg/kg, sixty minutes after treatment, mean ± SEM, six animals
Procedure: as §5

[12] = test system: DIO-induced diabetic mice(NIDDM); experiment: Glycogen content in skeletal muscle, DIO-induced diabetic mice; settings: 30 minutes after injection
Procedure: (§7) Normal, STZ-induced diabetic, and DIO-induced diabetic mice were intraeritoneally injected with borapetoside C (5 mg/kg) and Actrapid (0.5 IU/kg; a short-acting insulin provided by Novo Nordisk) or metformin (500 mg/kg). Their glycogen contents in skeletal muscle were determined 30 minutes after injections.

[13] = test system: normal mice; experiment: Glycogen content in skeletal muscle, normal mice; settings: 0.5 IU/kg i.p., 30 minutes after injection
Procedure: as §7

[14] = test system: STZ-diabetic mice(IDDM); experiment: Glycogen content in skeletal muscle, STZ-diabetic mice; settings: 0.5 IU/kg i.p., 30 minutes after injection
Procedure: as §7

[15] = test system: normal mice; experiment: Insulin sensitivity: plasma glucose reduction with insulin plus borapetoside C or vehicle, normal mice; settings: thirty minutes after insulin
Procedure: (§8) The effect of borapetoside C on insulin sensitivity was tested following the method described in Liu, et al., Clinical and Experimental Pharmacology and Physiology 2005; 32: 649-654. Normal mice (n=6), STZ-induced diabetic mice (n=5), and DIO-induced diabetic mice (n=7) were treated with insulin at various doses (i.e., 0.1 IU/kg, 0.5 IU/kg, and 1.0 IU/kg) together with either borapetoside C (0.1 mg/kg) or a vehicle control. Their plasma glucose levels were examined before and thirty minutes after insulin administration. The activity of lowering plasma glucose levels (AL) was calculated following the formula described in Example 2 above.

[16] = test system: STZ-induced diabetic mice; experiment: Insulin sensitivity: plasma glucose reduction with insulin plus borapetoside C or vehicle, STZ-induced diabetic mice; settings: thirty minutes after insulin
Procedure: as §8

[17] = test system: DIO-induced diabetic mice; experiment: Insulin sensitivity: plasma glucose reduction with insulin plus borapetoside C or vehicle, DIO-induced diabetic mice; settings: thirty minutes after insulin
Procedure: as §8

[18] = test system: liver phosphoenolpyruvate carboxykinase (PEPCK); experiment: Liver PEPCK levels by western blot in STZ-induced mice; settings: borapetoside C 5.0 mg/kg, twice per day for 7 days, insulin dose not given
Procedure: To characterize the effect of borapetoside C on liver glucose utilization, levels of liver phosphoenolpyruvate carboxykinase (PEPCK) were examined by western blot analysis in STZ-induced mice treated with borapetoside C (5.0 mg/kg, twice per day for 7 days), insulin, or a vehicle control.

[19] = 5.0 mg/kg intraperitoneal injection
[20] = 500.0 mg/kg intraperitoneal injection
[21] = Insulin 0.1 IU/kg together with Vehicle
[22] = Insulin 0.5 IU/kg together with Vehicle
[23] = Insulin 1.0 IU/kg together with Vehicle

With `C[C@@]12C[C@@H](c3ccoc3)OC(=O)[C@@H]1C[C@@H]1OC(=O)[C@@]3(O)[C@@H](O[C@@H]4O[C@H](CO)[C@@H](O)[C@H](O)[C@H]4O)CC[C@@H]2[C@@]13C` [borapetoside A] the “Activities of Lowering Plasma Glucose Levels (AL)” value [1, 19] was 49.4 ± 4.8%, the “Activities of Lowering Plasma Glucose Levels (AL)” value [2, 19] was 54.3 ± 6.3% and the “AL (activity of lowering plasma glucose levels)” value [3, 19] was 29.7±6.1%. The “Plasma insulin, Pre-treatment” value [4] was 56.0 ± 2.8 pmol/L, the “Plasma insulin, post-treatment” value [4] was 117.6 ± 10.8 pmol/L and the “Plasma insulin, Pre-treatment” value ([5]; 5.0 mg/kg i.p.) was 16.0 ± 4.1 pmol/L. The “Plasma insulin, post-treatment” value ([5]; 5.0 mg/kg i.p.) was 18.7 ± 8.4 pmol/L, the “Plasma insulin, Pre-treatment” value [6] was 106.6 ± 14.6 pmol/L and the “Plasma insulin, post-treatment” value [6] was 173.8 ± 26.9 pmol/L.
In the case of `COc1ccc(Cl)cc1C(=O)NCCc1ccc(S(=O)(=O)NC(=O)NC2CCCCC2)cc1` [glibenclamide, reference compound], the “Activities of Lowering Plasma Glucose Levels (AL)” value [1, 19] is reported as 19.3 ± 1.6%, the “Activities of Lowering Plasma Glucose Levels (AL)” value [2, 19] is reported as 3.2 ± 1.9% and the “AL (activity of lowering plasma glucose levels)” value [3, 19] is reported as 25.8±2.1%. For the same compound, the “Activity of lowing plasma glucose levels (%)” value (“Activity … (%)” below) [7] was 25.9 ± 3.5 %, the “Activity … (%)” value [8] was 34.9 ± 4.0 % and the “Plasma insulin, Pre-treatment” value [4] was 50.8 ± 3.6 pmol/L. The “Plasma insulin, post-treatment” value [4] was 149.5 ± 15.0 pmol/L, the “Plasma insulin, Pre-treatment” value [6] was 119.3 ± 9.6 pmol/L and the “Plasma insulin, post-treatment” value [6] was 197.0 ± 18.8 pmol/L. For the same compound, the “basal plasma glucose concentration (IPGTT)” value ([9]; before glucose injection) was 104.9 ± 3.1 mg/dL, the “plasma glucose concentration thirty minutes after intraperitoneal glucose injection (IPGTT)” value ([9]; glucose 2.0 mg/g body weight IP, vehicle 346.2±14.7) was 273.4 ± 13.6 mg/dL and the “basal plasma glucose concentration (IPGTT)” value ([10]; before glucose injection) was 185.3 ± 7.7 mg/dL. For the same compound, the “plasma glucose concentration thirty minutes after intraperitoneal glucose injection (IPGTT)” value ([10]; glucose 2.0 mg/g body weight IP, vehicle 405.6±8.9) was 339.1 ± 15.4 mg/dL.
`CN(C)C(=N)N=C(N)N` [metformin, reference compound] was tested, and the “Activities of Lowering Plasma Glucose Levels (AL)” value [1, 20] was 20.0 ± 2.5%, the “Activities of Lowering Plasma Glucose Levels (AL)” value ([2]; intraperitoneal injection) was 34.1 ± 5.5% and the “AL (activity of lowering plasma glucose levels)” value [3, 20] was 30.7±0.6%. For the same compound, the “Activity … (%)” value [11] was 18.1 ± 1.9 %, the “Plasma insulin, post-treatment” value ([5]; 500 mg/kg i.p.) was 15.1 ± 1.5 pmol/L and the “Plasma insulin, Pre-treatment” value [5] was 13.5 ± 1.1 pmol/L. The “Glycogen content (μmol/g wet weight)” value ([12]; 500 mg/kg i.p.) was 23.5 ± 0.9 μmol/g wet weight.
In the case of “Insulin: Actrapid, a short-acting insulin provided by Novo Nordisk [reference compound]”, the “Glycogen content (μmol/g wet weight)” value [13] is reported as 30.2 ± 2.0 μmol/g wet weight, the “Glycogen content (μmol/g wet weight)” value [14] is reported as 30.0 ± 1.0 μmol/g wet weight and the “Glycogen content (μmol/g wet weight)” value ([12]; 0.5 IU/kg i.p.) is reported as 20.2 ± 0.6 μmol/g wet weight. The “AL (%)” value [15, 21] was 14.6 ± 0.8%, the “AL (%)” value [15, 22] was 37.5 ± 1.1% and the “AL (%)” value [15, 23] was 56.8 ± 1.9%. The “AL (%)” value [16, 21] was 8.7 ± 1.6%, the “AL (%)” value [16, 22] was 11.5 ± 0.6% and the “AL (%)” value [16, 23] was 24.0 ± 1.3%. For the same compound, the “AL (%)” value [17, 21] was 19.5 ± 1.5%, the “AL (%)” value [17, 22] was 27.5 ± 2.6% and the “AL (%)” value [17, 23] was 32.0 ± 1.1%. The “liver PEPCK levels versus vehicle control-treated mice (western blot)” value [18] was “much lower”.

Source: patent publication US20100016213A1, “USE OF A DITERPENOID COMPOUND FOR TREATING DIABETES” (National Taiwan University, priority 2008, published 2010)
